Test results as given in US20230310540A1, “PEPTIDE COMPOSITIONS AND METHODS OF USE THEREOF” (priority 2020, published 2023).
In brackets after ≈: the same amount, converted by molar mass. Square brackets hold non-standard residues; d marks the D form. Peptide text beside a SMILES is read from it.

Assays:
Assay type in all cases: cell-based
human RBCs = assay: Hemolysis of human RBCs
Protocol: (§1) Peptide variants of D-CONGA (SEQ ID NO: 1) were tested for activity against E. coli, K. pneumoniae, and S. aureus. Minimum Inhibitory Concentrations (MIC) were measured in 96-well plates by broth dilution. Peptides were serially diluted in buffer or in buffer containing 1×10^9 human RBC/ml. Following 1 hr. incubation, bacteria in growth media were added and the plates were incubated overnight at 37° C. Sterilized, wells were identified to determine MIC. Hemolysis was measured by incubating 1×10^8 human RBCs with serially diluted peptide for 30 minutes followed by centrifugation of the cells and measurements of the released hemoglobin in the supernatant by absorbance at 410 nm. The value for 100% hemolysis was established by treatment with the detergent Triton-X100. Toxicity was measured by incubating serially diluted peptide with WI38 human fibroblast cells in the presence of SYTOX Green, a DNA binding dye that reports on cell death by membrane permeabilization. The peptide concentration that gives 50% cytotoxicity by relative SYTOX Green fluorescence, is denoted EC50.
Peptide was serially diluted in PBS starting at a concentration of 100 μM. The final volume of peptide in each well was 50 μL. To each well, 50 μL of RBCs in PBS at 2×10^8 cells/mL was added. As a positive lysis control, 1% triton was used. The mixtures were incubated at 37° C. for 1 hour, after which they were centrifuged at 1000 g for 5 minutes. After centrifugation, 10 μL of supernatant was transferred to 90 μL of DI H2O in a fresh 96-well plate. The absorbance of released hemoglobin at 410 nm was recorded and the fractional hemolysis was calculated based on the 100% and 0% lysis controls.
(§2) MIC values were reported in μM peptide against gram-negative E. coli (EC), P. aeruginosa (PA), and gram-positive S. aureus (SA). The two columns under each organism are for assays performed in the absence (−) and presence (+) of 1×10^9 human RBC/ml. “>30” means that sterilization was not observed at 30 μM, the highest concentration tested. The column marked “hemolysis” is the fractional hemolysis of 1×10^8 human RBC/ml at 100 μM peptide determined from measurements of serially diluted peptide, starting from 100 μM. The column marked “EC 50” contains the concentration of peptide that kills 50% of WI-38 human fibroblast cells assayed by entry of SYTOX™ Green DNA binding dye.

S. aureus = settings: for MIC in Broth Dilution, S. Aureus, RBC −: absence of RBC; for MIC in Broth Dilution, S. Aureus, RBC − / MIC in Broth Dilution, S. Aureus, RBC +: Table 3; for MIC, S. aureus, No RBC / MIC, S. aureus, 10^9 cells/ml RBC: Table 2; for MIC in Broth Dilution, S. Aureus, RBC +: presence of 1×10^9 human RBC/ml; for MIC, S. aureus, 10^9 cells/ml RBC: with 10^9 human RBC/ml
Protocol: as §1
(§3) Antimicrobial peptides and conventional antibiotics were prepared at 5-times the final concentration needed in 0.025% acetic acid. The antibiotics were serially diluted by a factor of 2:3 horizontally across 96-well plates from Corning, 25 μL per well. One column was reserved for controls. For the assays performed in the presence of RBC, type O+ human RBCs at 0 or 2.5×10^9 cells/mL were added in 50 μL aliquots to all wells. Following a 30-minute incubation, 50 μL of TSB, inoculated with 5×10^5 CFU/mL, was added to all wells, and plates were incubated overnight at 37° C. Following overnight incubation at 37° C., the OD600 was measured (values of less than 0.1 were considered sterilized). To assess bacterial growth in the assays with RBC, the OD600 was measured after a second day inoculation with 10 μL of solution from the original plate added to 100 μL of sterile TSB followed by overnight incubation.
as §2

E. coli = settings: for MIC in Broth Dilution, E. coli, RBC −: absence of RBC; for MIC in Broth Dilution, E. coli, RBC − / MIC in Broth Dilution, E. coli, RBC +: Table 3; for MIC, E. coli, No RBC / MIC, E. coli, 10^9 cells/ml RBC: Table 2; for MIC in Broth Dilution, E. coli, RBC +: presence of 1×10^9 human RBC/ml; for MIC, E. coli, 10^9 cells/ml RBC: with 10^9 human RBC/ml
Protocol: as §1, §3, §2

Row | SMILES | Hemolysis at 100 μM (human RBCs) | MIC in Broth Dilution, S. Aureus, RBC − (S. aureus) | MIC, S. aureus, No RBC (S. aureus) | MIC in Broth Dilution, S. Aureus, RBC + (S. aureus) | MIC, S. aureus, 10^9 cells/ml RBC (S. aureus) | MIC in Broth Dilution, E. coli, RBC − (E. coli) | MIC, E. coli, No RBC (E. coli) | MIC in Broth Dilution, E. coli, RBC + (E. coli) | MIC, E. coli, 10^9 cells/ml RBC (E. coli)
1 | CC(C)C[C@@H](NC(=O)[C@@H](CCCNC(=N)N)NC(=O)[C@@H](CCCNC(=N)N)NC(=O)[C@@H](Cc1c[nH]c2ccccc12)NC(=O)[C@@H](CCCNC(=N)N)NC(=O)[C@H](N)CCCNC(=N)N)C(=O)N[C@H](C)C(=O)N[C@H](Cc1ccccc1)C(=O)N[C@H](C)C(=O)N[C@H](Cc1ccccc1)C(=O)N[C@H](CCCNC(=N)N)C(=O)N[C@H](CCCNC(=N)N)C(N)=O [D-CONGA-ΔA4, rrwrrlafafrr (All D)] (H-[dR][dR][dW][dR][dR][dL][dA][dF][dA][dF][dR][dR]-NH2) | 0.02 | 3.2 µM (≈ 5.41 µg/mL) | 3.2 µM (≈ 5.41 µg/mL) | 2.3 µM | 2.3 μM | 1.6 µM (≈ 2.7 µg/mL) | 1.6 µM (≈ 2.7 µg/mL) | 2.8 µM | 2.8 μM
2 | CC(C)C[C@@H](NC(=O)[C@@H](CCCNC(=N)N)NC(=O)[C@@H](CCCNC(=N)N)NC(=O)[C@@H](C)NC(=O)[C@@H](Cc1c[nH]c2ccccc12)NC(=O)[C@@H](CCCNC(=N)N)NC(=O)[C@H](N)CCCNC(=N)N)C(=O)N[C@H](C)C(=O)N[C@H](Cc1ccccc1)C(=O)N[C@H](Cc1ccccc1)C(=O)N[C@H](CCCNC(=N)N)C(=O)N[C@H](CCCNC(=N)N)C(N)=O [D-CONGA-ΔA10, rrwarrlaffrr (All D)] (H-[dR][dR][dW][dA][dR][dR][dL][dA][dF][dF][dR][dR]-NH2) | 0.02 | 23.5 µM (≈ 39.7 µg/mL) | 24 µM (≈ 40.6 µg/mL) | 19 µM | 19 μM | 0.7 µM (≈ 1.18 µg/mL) | 0.7 µM (≈ 1.18 µg/mL) | 1.3 µM | 1.3 μM
3 | CC(C)C[C@@H](NC(=O)[C@@H](CCCNC(=N)N)NC(=O)[C@@H](CCCNC(=N)N)NC(=O)[C@@H](C)NC(=O)[C@@H](Cc1c[nH]c2ccccc12)NC(=O)[C@@H](CCCNC(=N)N)NC(=O)[C@H](N)CCCNC(=N)N)C(=O)N[C@H](C)C(=O)N[C@H](Cc1ccccc1)C(=O)N[C@H](C)C(=O)N[C@H](Cc1ccccc1)C(=O)N[C@H](CCCNC(=N)N)C(N)=O [D-CONGA-ΔR13, rrwarrlafafr (All D)] (H-[dR][dR][dW][dA][dR][dR][dL][dA][dF][dA][dF][dR]-NH2) | 0.03 | 27.1 µM (≈ 43.5 µg/mL) | 27 µM (≈ 43.3 µg/mL) | >30 µM | 30 μM | 0.9 µM (≈ 1.44 µg/mL) | 0.9 µM (≈ 1.44 µg/mL) | 0.6 µM | 0.6 μM
4 | CC(C)C[C@H](NC(=O)[C@H](CCCNC(=N)N)NC(=O)[C@H](CCCNC(=N)N)NC(=O)[C@H](C)NC(=O)[C@H](Cc1c[nH]c2ccccc12)NC(=O)[C@H](CCCNC(=N)N)NC(=O)[C@H](N)CCCNC(=N)N)C(=O)N[C@@H](C)C(=O)N[C@@H](Cc1ccccc1)C(=O)N[C@@H](C)C(=O)N[C@@H](Cc1ccccc1)C(=O)N[C@@H](CCCNC(=N)N)C(=O)N[C@H](CCCNC(=N)N)C(N)=O [L-CONGA-D(R1, R13)] (H-[dR]RWARRLAFAFR[dR]-NH2) | 0.01 | >30 µM | 30 µM (≈ 52.8 µg/mL) | >30 µM | 30 μM | 20 µM (≈ 35.2 µg/mL) | 20 µM (≈ 35.2 µg/mL) | 26.2 µM | 26.2 μM
